Legend:
Assay in all cases: relative viability (nuclei count vs DMSO), 5 days (fraction); higher = more cells survive
Metformin + Foretinib = compound: CN(C)C(=N)NC(=N)N [Metformin] + COc1cc2c(Oc3ccc(NC(=O)C4(C(=O)Nc5ccc(F)cc5)CC4)cc3F)ccnc2cc1OCCCN1CCOCC1 [Foretinib] (partner 0.25 µM)
In short: (§1)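 The day after seeding in 1536-well plates, lung cancer cell lines were treated by pin tool with a single drug, or with a fixed anchor-drug dose together with five library-drug doses (not always all listed) in √10 steps. After 5 days, a combined fix-and-stain solution (final 0.05% Triton X-100, 1% formaldehyde, 1 ug/ml Hoechst) was added. Nuclei counted on 4× images gave relative viability as treated counts over vehicle counts, reported as the median of duplicate plates.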

Metformin + Crizotinib = compound: CN(C)C(=N)NC(=N)N [Metformin] + C[C@@H](Oc1cc(-c2cnn(C3CCNCC3)c2)cnc1N)c1c(Cl)ccc(F)c1Cl [Crizotinib] (partner 1 µM)
In short: as §1

Metformin + Linsitinib = compound: CN(C)C(=N)NC(=N)N [Metformin] + C[C@]1(O)C[C@@H](c2nc(-c3ccc4ccc(-c5ccccc5)nc4c3)c3c(N)nccn32)C1 [Linsitinib] (partner 1 µM)
In short: as §1

Apatinib + Pictilisib = compound: N#CC1(c2ccc(NC(=O)c3cccnc3NCc3ccncc3)cc2)CCCC1 [Apatinib] + CS(=O)(=O)N1CCN(Cc2cc3nc(-c4cccc5[nH]ncc45)nc(N4CCOCC4)c3s2)CC1 [Pictilisib] (partner 1 µM)
In short: as §1

Row | Cell Line | relative viability (Metformin + Foretinib; first compound 10 µM) | relative viability (Metformin + Foretinib; first compound 31.62 µM) | relative viability (Metformin + Foretinib; first compound 100 µM) | relative viability (Metformin + Foretinib; first compound 316.23 µM) | relative viability (Metformin + Foretinib; first compound 1000 µM) | relative viability (Metformin + Crizotinib; first compound 10 µM) | relative viability (Metformin + Crizotinib; first compound 31.62 µM) | relative viability (Metformin + Crizotinib; first compound 100 µM) | relative viability (Metformin + Crizotinib; first compound 316.23 µM) | relative viability (Metformin + Crizotinib; first compound 1000 µM) | relative viability (Metformin + Linsitinib; first compound 10 µM) | relative viability (Metformin + Linsitinib; first compound 31.62 µM) | relative viability (Metformin + Linsitinib; first compound 100 µM) | relative viability (Metformin + Linsitinib; first compound 316.23 µM) | relative viability (Metformin + Linsitinib; first compound 1000 µM) | relative viability (Apatinib + Pictilisib; first compound 0.08 µM) | relative viability (Apatinib + Pictilisib; first compound 0.253 µM) | relative viability (Apatinib + Pictilisib; first compound 0.8 µM) | relative viability (Apatinib + Pictilisib; first compound 2.53 µM) | relative viability (Apatinib + Pictilisib; first compound 8 µM)
1 | NCI-H1623 | 0.799 | 0.811 | 1.02 | 1.01 | 0.864 |  |  |  |  |  |  |  |  |  |  |  |  |  |  | 
2 | HCC-15 |  | 1.06 | 1.1 | 0.905 | 0.911 | 0.818 | 0.81 | 0.889 | 0.8 | 0.833 | 0.877 | 0.965 | 0.953 | 0.857 | 0.947 | 0.77 | 0.786 | 0.693 | 0.706 | 0.71
3 | NCI-H441 |  | 0.879 | 0.799 | 0.788 | 0.77 | 0.337 |  | 0.638 | 0.457 | 0.655 | 0.432 |  | 0.536 | 0.478 | 0.605 | 0.583 | 0.566 | 0.51 | 0.408 | 0.32
4 | NCI-H1993 | 0.964 | 1.02 | 0.912 | 0.836 | 1.06 | 1.12 | 0.849 | 1.22 | 1.06 | 1.31 | 0.719 | 0.73 | 0.838 | 0.686 | 0.705 | 0.874 | 0.828 | 0.803 | 0.731 | 0.817
5 | NCI-H1915 |  | 1.04 | 1.15 | 1.07 | 1.18 |  | 0.985 | 0.918 | 0.889 | 0.96 |  | 1.22 | 1.15 | 1.14 | 1.11 | 1.12 | 0.91 | 0.943 | 0.878 | 0.752
6 | ABC-1 | 1.48 | 1.14 | 1.05 | 1.02 | 0.287 |  | 1.3 | 0.869 | 0.447 | 0.29 |  | 0.675 | 0.971 | 0.307 | 0.325 |  | 1.01 | 0.637 | 0.752 | 0.552
7 | NCI-H2087 |  | 0.966 | 1.12 | 0.891 | 1.06 | 0.813 | 0.726 | 0.682 | 0.849 | 0.638 | 0.609 | 0.908 | 0.805 | 0.712 | 0.782 | 0.864 | 0.815 | 0.826 | 0.749 | 0.779
8 | NCI-H1755 | 0.757 | 0.789 | 0.778 | 0.742 | 0.816 | 0.677 | 0.792 | 0.744 | 0.756 | 0.753 | 0.842 | 0.84 | 0.871 | 0.843 | 0.914 | 0.443 | 0.416 | 0.447 | 0.461 | 0.376
9 | HCC-366 | 1.09 | 0.928 | 0.881 | 0.955 | 0.943 | 0.608 | 0.502 | 0.532 | 0.398 | 0.709 | 0.646 | 0.703 | 0.75 | 0.559 | 0.691 | 0.22 | 0.184 | 0.183 | 0.129 | 0.111
10 | NCI-H2170 | 0.951 | 1.02 | 0.915 | 0.95 | 0.965 | 1.09 | 1.14 | 1.19 | 1.02 | 1.19 |  |  |  |  |  | 0.329 | 0.301 | 0.304 | 0.306 | 0.315
11 | NCI-H1792 |  |  |  |  |  |  | 0.956 | 1.13 | 0.971 | 0.98 |  | 0.742 | 0.803 | 0.632 | 0.664 | 0.309 | 0.278 | 0.334 | 0.191 | 0.243
12 | SW 1573 | 0.955 | 1.04 | 0.914 | 0.788 | 1.1 | 0.892 | 0.849 | 0.866 | 0.706 | 0.815 | 0.916 | 0.811 | 0.969 | 0.72 | 0.996 | 0.588 | 0.476 | 0.548 | 0.517 | 0.535
13 | HCC-827 |  | 0.899 | 0.974 | 0.807 | 0.889 |  | 0.87 | 0.903 | 0.849 | 0.888 |  | 0.89 | 0.945 | 0.883 | 0.973 | 1.04 | 0.867 | 0.806 | 0.777 | 1.01
14 | NCI-H358 | 0.726 | 0.723 | 0.658 | 0.732 | 0.813 | 0.551 | 0.448 | 0.587 | 0.311 | 0.507 | 1.04 | 0.937 | 0.959 | 1.13 | 1.31 | 0.282 | 0.241 | 0.283 | 0.298 | 0.301
15 | Calu-6 | 0.809 | 0.878 | 0.917 | 0.795 | 0.821 | 0.637 | 0.755 | 0.71 | 0.691 | 0.714 | 0.862 | 0.971 | 0.921 | 0.941 | 0.978 | 0.954 | 0.951 | 0.813 | 0.864 | 0.602

— the supplement of paper PMC10307832
